Molecules are shown by their SMILES. Counter-ions that a name gives are not always drawn.

What is called Ki is a dissociation constant, usually derived from enzyme kinetics or from competition with a known ligand.

In the experiment the target is T1, MASP-2 (CCP1-CCP2-SP) (Homo sapiens, UniProt O00187).
T1 construct: 15 μL of Enzyme MASP-2 (CCP1-CCP2-SP) in Assay Buffer
T1 sequence (O00187 445-686 limits assumed): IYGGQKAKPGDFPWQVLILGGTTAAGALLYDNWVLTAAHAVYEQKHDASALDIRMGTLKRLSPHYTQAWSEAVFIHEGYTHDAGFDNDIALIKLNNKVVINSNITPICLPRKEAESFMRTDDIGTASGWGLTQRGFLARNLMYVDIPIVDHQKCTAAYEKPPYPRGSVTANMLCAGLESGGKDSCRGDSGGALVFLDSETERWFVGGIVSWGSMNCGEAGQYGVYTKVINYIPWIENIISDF
T1 sequence (O00187 298-444 partner limits assumed): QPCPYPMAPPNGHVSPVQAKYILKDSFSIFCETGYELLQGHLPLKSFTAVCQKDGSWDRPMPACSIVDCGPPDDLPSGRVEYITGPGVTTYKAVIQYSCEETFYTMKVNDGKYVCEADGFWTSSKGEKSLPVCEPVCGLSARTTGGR
The experiment in a line: Enzymatic Assay for MASP-2. The following applies: fluorogenic substrate based on C2 cleavage site, room temperature, 20 mM HEPES pH 7.4. The class given is biochemical. On the procedure:
Enzymatic Assay for MASP-2
The MASP-2 assay utilizes a fluorogenic substrate, based on the cleavage site for its natural substrate C2. The assay is run at room temperature in an assay buffer containing 20 mM HEPES, pH 7.4, 140 mM NaCl and 0.1% Tween 20. Assay parameters are adjusted such that the assay is linear with respect to time, enzyme, and substrate concentrations. Under these optimized assays conditions, IC50 values are equivalent to Ki values, except in a few cases of “tight binding” inhibitors. Cases of “tight binding” or possible “slow binding” inhibitors are handled by the methods described in Copeland R. A. (2013) Evaluation of Enzyme Inhibitors in Drug Discovery. 2nd Ed., John Wiley and Sons, Inc., Chapters 5-7.
The MASP-2 assay protocol is carried out as follows. Test compounds are serially diluted in DMSO and then 100 nL of each dilution is transferred to the assay plate(s). 10 μL of Assay Buffer is added, followed by 15 μL of Enzyme MASP-2 (CCP1-CCP2-SP) in Assay Buffer. 15 μL of Substrate in Assay Buffer is then added and mixed to start the reactions. After 20 min at room temperature, 15 μL of a stop solution (0.1 M acetic acid) is added, mixed and the plates are read on a SpectraMax i3x Microplate Reader and exported as Excel files. Each assay plate included a “no inhibitor” (DMSO Only) control, a “no enzyme” control and a reference inhibitor control. % Activity values=100*(average test comp. fluorescence−average “no enzyme” fluorescence)/(average “DMSO only” fluorescence−average “no enzyme” fluorescence). IC50 and Ki values are very reproducible, falling well within ±2-fold.
As for `Nc1nc2ccc(CNC(=O)Cn3c(Br)cnc(NCCc4ccccc4)c3=O)cc2[nH]1` [Compound 8, N-((2-Amino-1H-Benzo[d]Imidazol-6-yl)Methyl)-2-(6-Bromo-2-Oxo-3-(Phenethylamino)Pyrazin-1(2H)-yl)Acetamide], the Ki is < 0.5 µM.

For the compound `O=C(Cn1c(-c2ccccc2)cnc(NCc2cccc(C(F)(F)F)c2)c1=O)NCc1cc2cnccc2[nH]1` [Compound 152, N-((1H-Pyrrolo[3,2-c]pyridin-2-yl)methyl)-2-(2-oxo-6-phenyl-3-((3-(trifluoromethyl)benzyl)amino)pyrazin-1(2H)-yl)acetamide], the Ki was < 0.5 µM. To `O=C(Cn1c(-c2ccccc2)cnc(NCc2ccc(F)c(F)c2)c1=O)NCc1cc2cnccc2[nH]1` [Compound 70, N-((1H-Pyrrolo[3,2-c]pyridin-2-yl)methyl)-2-(3-((3,4-difluorobenzyl)amino)-2-oxo-6-phenylpyrazin-1(2H)-yl)acetamide trifluoroacetate] belongs < 0.5 µM.

With `O=C(Cn1c(-c2cnn(C(F)F)c2)cnc(NCCc2ccccc2)c1=O)NCc1cc2cnccc2[nH]1` [Compound 113, N-((1H-Pyrrolo[3,2-c]pyridin-2-yl)methyl)-2-(6-(1-(difluoromethyl)-1H-pyrazol-4-yl)-2-oxo-3-(phenethylamino)pyrazin-1(2H)-yl)acetamide], the Ki is < 0.5 µM. To `Cn1cc(-c2cnc(NCCc3ccccc3)c(=O)n2CC(=O)NCc2cnc3scc(Cl)c3c2)cn1` [Compound 82] belongs 2.5 to 10 µM; to `O=C(Cn1c(-c2cccc(C3(O)CC3)c2)cnc(NCCc2ccccc2)c1=O)NCc1cc2cnccc2[nH]1` [Compound 98, N-((1H-Pyrrolo[3,2-c]pyridin-2-yl)methyl)-2-(6-(3-(1-hydroxycyclopropyl)phenyl)-2-oxo-3-(phenethylamino)pyrazin-1(2H)-yl)acetamide], < 0.5 µM. Under `CC(C)Nc1ncc(-c2ccccc2)n(CC(=O)NCc2cc3cnccc3[nH]2)c1=O` [Compound 134, N-((1H-Pyrrolo[3,2-c]Pyridin-2-yl)Methyl)-2-(3-(Isopropylamino)-2-Oxo-6-Phenylpyrazin-1(2H)-yl)Acetamide] stands < 0.5 µM. Turning to `Cc1ccc(C2(CNc3ncc(-c4ccccc4)n(CC(=O)NCc4cc5cnccc5[nH]4)c3=O)CC2)cc1` [Compound 63, N-((1H-Pyrrolo[3,2-c]pyridin-2-yl)methyl)-2-(2-oxo-6-phenyl-3-(((1-(p-tolyl)cyclopropyl)methyl)amino)pyrazin-1(2H)-yl)acetamide trifluoroacetate], the Ki was < 0.5 µM. As to `O=C(Cn1c(-c2ccccc2)cnc(NCC2(c3ccccc3)CCOC2)c1=O)NCc1cc2cnccc2[nH]1` (stereo not shown) [Compound 50, N-((1H-Pyrrolo[3,2-c]pyridin-2-yl)methyl)-2-(2-oxo-6-phenyl-3-(((3-phenyltetrahydrofuran-3-yl)methyl)amino)pyrazin-1(2H)-yl)acetamide trifluoroacetate], the Ki is < 0.5 µM. Under `Cc1nc(N)ccc1CNC(=O)Cn1c(-c2cccnc2)cnc(NCCc2ccccc2)c1=O` [Compound 18, N-((6-amino-2-methylpyridin-3-yl)methyl)-2-(2-oxo-3-(phenethylamino)-6-(pyridin-3-yl)pyrazin-1(2H)-yl)acetamide trifluoroacetate] stands < 0.5 µM; under `Cc1ccccc1CCNc1ncc(-c2ccccc2)n(CC(=O)NCc2cc3cnccc3[nH]2)c1=O` [Compound 135, N-((1H-Pyrrolo[3,2-c]pyridin-2-yl)methyl)-2-(3-((2-methylphenethyl)amino)-2-oxo-6-phenylpyrazin-1(2H)-yl)acetamide], < 0.5 µM; under `Nc1nc2ccc(CNC(=O)Cn3c(-c4ccccc4)ncc(NCCc4ccccc4)c3=O)cc2[nH]1` [Compound 4, N-((2-Amino-1H-Benzo[d]Imidazol-6-yl)Methyl)-2-(6-Oxo-5-(Phenethylamino)-2-Phenylpyrimidin-1(6H)-yl)Acetamide, Trifluoroacetate], < 0.5 µM. To `Cc1nc(N)ccc1CNC(=O)Cn1c(-c2ccc[nH]2)cnc(NCCc2ccccc2)c1=O` [Compound 22, N-((6-Amino-2-methylpyridin-3-yl)methyl)-2-(2-oxo-3-(phenethylamino)-6-(1H-pyrrol-2-yl)pyrazin-1(2H)-yl)acetamide] belongs < 0.5 µM.

As for `O=C(Cn1c(-c2cccc(CO)c2)cnc(NCCc2ccccc2)c1=O)NCc1cc2cnccc2[nH]1` [Compound 88, N-((1H-Pyrrolo[3,2-c]pyridin-2-yl)methyl)-2-(6-(3-(hydroxymethyl)phenyl)-2-oxo-3-(phenethylamino)pyrazin-1(2H)-yl)acetamide trifluoroacetate], the Ki was < 0.5 µM. To `Cc1nn(C)cc1-c1cnc(NCCc2ccccc2)c(=O)n1CC(=O)NCc1cc2cnccc2[nH]1` [Compound 104, N-((1H-Pyrrolo[3,2-c]pyridin-2-yl)methyl)-2-(6-(1,3-dimethyl-1H-pyrazol-4-yl)-2-oxo-3-(phenethylamino)pyrazin-1(2H)-yl)acetamide] belongs < 0.5 µM; to `COCCCCNc1ncc(-c2ccccc2)n(CC(=O)NCc2cc3cnccc3[nH]2)c1=O` [Compound 124, N-((1H-Pyrrolo[3,2-c]pyridin-2-yl)methyl)-2-(3-((4-methoxybutyl)amino)-2-oxo-6-phenylpyrazin-1(2H)-yl)acetamide trifluoroacetate], < 0.5 µM. To `CC(C)(C)OC(=O)N1CCC2(CC1)CCN(c1ncc(-c3ccccc3)n(CC(=O)NCc3cc4cnccc4[nH]3)c1=O)C2` [Compound 53, Tert-Butyl 2-(4-(2-(((1H-Pyrrolo[3,2-c]Pyridin-2-yl)Methyl)Amino)-2-Oxoethyl)-3-Oxo-5-Phenyl-3,4-Dihydropyrazin-2-yl)-2,8-Diazaspiro[4.5]Decane-8-Carboxylate] belongs < 0.5 µM.

With `O=C(Cn1c(-c2ccccc2)cnc(NCCc2ccccc2F)c1=O)NCc1cc2cnccc2[nH]1` [Compound 144, N-((1H-Pyrrolo[3,2-c]pyridin-2-yl)methyl)-2-(3-((2-fluorophenethyl)amino)-2-oxo-6-phenylpyrazin-1(2H)-yl)acetamide], the Ki was < 0.5 µM. Under `O=C(Cn1c(-c2cnn(C3CCC3)c2)cnc(NCCc2ccccc2)c1=O)NCc1cc2cnccc2[nH]1` [Compound 110, N-((1H-Pyrrolo[3,2-c]pyridin-2-yl)methyl)-2-(6-(1-cyclobutyl-1H-pyrazol-4-yl)-2-oxo-3-(phenethylamino)pyrazin-1(2H)-yl)acetamide] stands < 0.5 µM; under `Cc1cccc(CNc2ncc(-c3ccccc3)n(CC(=O)NCc3cc4cnccc4[nH]3)c2=O)c1` [Compound 155, N-((1H-Pyrrolo[3,2-c]pyridin-2-yl)methyl)-2-(3-((3-methylbenzyl)amino)-2-oxo-6-phenylpyrazin-1(2H)-yl)acetamide], < 0.5 µM. Under `COC(=O)[C@H](Cc1ccc(O)cc1)Nc1ncc(-c2ccccc2)n(CC(=O)NCc2cc3cnccc3[nH]2)c1=O` [Compound 163, Methyl (4-(2-(((1H-pyrrolo[3,2-c]pyridin-2-yl)methyl)amino)-2-oxoethyl)-3-oxo-5-phenyl-3,4-dihydropyrazin-2-yl)-L-tyrosinate trifluoroacetate] stands < 0.5 µM; under `COc1cccc(CCNc2ncc(-c3ccccc3)n(CC(=O)NCc3cc4cnccc4[nH]3)c2=O)c1` [Compound 136, N-((1H-Pyrrolo[3,2-c]pyridin-2-yl)methyl)-2-(3-((3-methoxyphenethyl)amino)-2-oxo-6-phenylpyrazin-1(2H)-yl)acetamide], < 0.5 µM.

These data come from patent US12110288B2, “MASP-2 inhibitors and methods of use” (Omeros Corporation, priority 2019, dated 2024).
